Results on one molecule are retold here after US20120078527A1, “KIT AND METHOD FOR PREDICTING SENSITIVITY OF GASTRIC CANCER PATIENT TO ANTI-CANCER AGENT” (SAMSUNG ELECTRONICS CO., LTD., priority 2010, published 2012).

The test deals with advanced (terminal) gastric cancer patients. The test is described as follows: Change in tumor size after cisplatin-based chemotherapy in gastric cancer patients. Type of test: in vivo, human. The conditions noted are these: population of 151 advanced (terminal) gastric cancer patients; cisplatin-based chemotherapy per NCCN guidelines after palliative surgical resection; judged by changes in tumor size. The method, then:
A population of 151 advanced (terminal) gastric cancer patients who were treated with cisplatin-based chemotherapy (in Samsung Medical Center, Seoul, Korea) after palliative surgical resection were selected to test for sensitivity to the anti-cancer agent. That is, the anti-cancer agent (cisplatin) was administered to the patients according to National Comprehensive Cancer Network (NCCN) guidelines, and changes in tumor size after the administration of the anti-cancer agent were measured to determine whether the anti-cancer therapy was effective. Then, the patients were grouped into two groups: one group of 103 patients for which the anti-cancer therapy was effective (responders), and the other group of 48 patients for which the anti-cancer therapy was not effective (nonresponders). In addition, to identify SNPs associated with response or nonresponse to the anti-cancer agent, DNA of each of the patients was extracted from gastric tumor tissue removed from the patient using QIAamp DNA Mini and blood Mini kits.

In the case of `N.N.[Cl][Pt][Cl]` [cisplatin], the “patients for which the anti-cancer therapy was effective (responders)” value came out at 103 patients and the “patients for which the anti-cancer therapy was not effective (nonresponders)” value was found to be 48 patients.
